“Also recorded” adds a separate entry of the source.
Assays:
HO-1 [1] = assay: Western analysis of HO-1 expression in the ex vivo I/R injury model; set-up: species or system rat; conditions: at completion of 2-hour perfusion period; densitometer; untreated 0.11 AU
Experimental: (§1) Western blots: Protein was extracted from liver tissue samples with PBSTDS buffer (50 mM Tris, 150 mM NaCl, 0.1% SDS, 1% sodium deoxycholate, and 1% Triton X-100, pH 7.2). Proteins (30 μg/sample) in SDS-loading buffer (50 mM Tris, pH 7.6, 10% glycerol, 1% SDS) were subjected to 12% SDS-PAGE and transferred to nitrocellulose membrane (Bio-Rad Laboratories Inc., Hercules, Calif., USA). The gel was then stained with Coomassie blue to document equal protein loading. The membrane was blocked with 3% dry milk and 0.1% Tween-20 (Amersham, Arlington Heights, Ill., USA) in PBS and incubated with rabbit anti-rat HO-1 polyclonal Ab (Sangstat Corp., San Francisco, Calif., USA). The filters were washed and then incubated with horseradish peroxidase donkey anti-rabbit Ab (Amersham Life Sciences, Arlington Heights, Ill., USA). Relative quantities of HO-1 protein were determined using a densitometer (Kodak Digital Science 1D Analysis Software, Rochester, N.Y., USA) and results were expressed in absorbance units (AU).
Western blots were performed as described in Example 3.

[2] = system: fatty livers from obese Zucker rats; assay: Liver histology in the ex vivo cold ischemia model, Banff's criteria; set-up: species or system rat; conditions: after 2 hours perfusion; graded 1 to 4; untreated 3.0±0.63
Excerpt: Histology and immunohistochemistry: Liver specimens were fixed in a 10% buffered formalin solution and embedded in paraffin. Sections were made at 4 μm and stained with H&E. The histologic severity of I/R injury in the ex vivo perfusion model was graded using International Banff Criteria. Using these criteria, lobular disarray and ballooning changes are graded from 1 to 4, where no change is given a score of 1 and severe disarray or ballooning changes is given a score of 4.

[3] = system: fatty livers from obese Zucker rats; assay: Ex vivo steatotic rat liver cold ischemia model followed by reperfusion; assay type: in vivo; conditions: for bile production / portal blood flow: 2-hour reperfusion after 6 hours cold ischemia; for bile production / portal blood flow / I/R-induced hepatocyte injury measured by sGOT release: compared with untreated controls; for I/R-induced hepatocyte injury measured by sGOT release: 2-hour reperfusion
Experimental: Animals, metalloporphyrins, and adenovirus constructs are described in Example 3. Ex vivo cold ischemia model: Genetically obese Zucker rats underwent ether anesthesia and systemic heparinization. […] Control livers from untreated obese Zucker rats were stored for 6 hours at 4° C. in UW solution (n=6). There were 4 treatment groups. Group 1 animals received CoPP, the HO-1 inducer (5 mg/kg intraperitoneally) 24 hours before liver harvest (n=6). Group 2 rats were infused with Ad-HO-1 or Ad-β Gal (2.4×10^9 plaque-forming units (pfu) […]) 24 to 48 hours before the procurement (n=4–10). Group 3 donors were treated with Ad-HO-1 (2.4×10^9 pfu intravenously) at day-2, followed 1 day later by infusion of ZnPP (20 mg/kg intraperitoneally), the HO-1 inhibitor (n=4). Group 4 rats received ZnPP alone (20 mg/kg intraperitoneally) at 24 hours before harvest (n=4). All livers were procured at day 0, stored for 6 hours at 4° C. in UW solution, and then perfused on an isolated perfusion rat liver apparatus, as described. The Zucker livers were perfused ex vivo for 2 hours while temperature, pH, and inflow pressure were kept constant. Portal vein blood flow and pressure were recorded every 15 minutes, whereas bile output was monitored every 30 minutes. Portal vein blood flow was adjusted to maintain portal pressures of 13 to 18 cm H2O. Blood was collected at 30-minute intervals and serum glutamic-oxaloacetic trans-aminase (sGOT) levels were measured using an autoanalyzer from ANTECH Diagnostics (Irvine, Calif., USA). Following 2 hours of perfusion, a portion of the liver was snap-frozen for mRNA extraction and Western blot analysis of HO-1 expression; the remaining tissue samples were fixed in formalin for hematoxylin and eosin (H&E) staining.

[4] = system: C57B1/6 heart allografts in CBA recipients; assay: Heterotopic heart transplantation, allograft survival; assay type: in vivo, mouse; conditions: control 7.8±1.1
Experimental: FIG. 2 is a graph showing the prolongation of heart allograft survival following metalloprotoporphyrin therapy. CBA recipients of C57B1/6 heart allografts were either untreated or treated as follows: Zn-protoporphyrin group (n=4); Zn-protoporphyrin was administered at 10 mg/kg/day on day −1 before transplantation and on days 1–9 post transplantation. Co-protoporphyrin group (n=4); Co-protoporphyrin was administered at 20 mg/kg/day on days 0–5 post-transplantation; Zn-protoporphyrin pretreatment group (n=3); heart donors were treated one day before transplantation with 50 mg/kg Zn-protoporphyrin.
Heterotopic Heart Transplantation: Abdominal heterotopic heart transplantation was performed as previously described by Ono and Lindsey, J. Thorac. Cardiovasc. Surg. 7:225–229 (1969) using […] donors and CBA recipients. Metalloporphyrin was administered intraperitoneally using various protocols. Heart allograft survival was monitored daily by direct palpation, and rejection was defined as termination of palpable cardiac contractility. Results are expressed as percentage graft survival at a given postoperative period. Statistical analysis was performed with the Mann-Whitney test.

EL4 cells = assay: Cytotoxic T-cell activity, four hour chromium release assay; assay type: cell-based, mouse; conditions: for target cell lysis: at about 10 μg/ml, cytotoxic T-cells, E:T 20:1, four hour incubation; for chromium release from target cells: at concentrations higher than about 10 μg/ml, compared with spontaneous release without compound
Excerpt: Cytotoxic T-cell Activity: To assay the effect of metalloprotoporphyrins on cytotoxic T-cell activity, CBA to B6 effectors were generated following a five day culture of 3×10^6 CBA spleen cells with 3×10^6 mitomycin-treated B6 spleen cells in wells of a 24-well plate (Nunclone, Delta, Nunc, Denmark) in R-10 medium. Effector cells were then harvested and washed. (H2^b), a mouse lymphoma induced in C57BL/6N was used as target cells. EL4 cells were routinely subcultured once every three days. They were then collected, washed, and labeled with 0.1 mCi of sodium chromate-51 in 200 μl for one hour at 37° C. Effector (E) and target (t) cells were added into V-shaped tissue culture plates (Nunc, Denmark) at E:T of 20:1. Metalloprotoporphyrins were diluted to the working concentrations with PBS and added at the beginning of the four hour incubation period. For the determination of maximal release, 1% triton X-100 was added to separate wells. Plates were centrifuged for three minutes to increase cellular contact before the four hour incubation period. After incubation 75 μl supernatant from each well was collected and the amount of^51Cr released was counted using a TopCount scintillation counter. The degree of cell lysis was calculated using the formula below: […]

liver isografts [5] = assay: OLT immunohistochemistry for mononuclear cell (MNC) infiltration; assay type: in vivo, rat
Experimental: OLTs were examined serially by immunohistochemistry for mononuclear cell (MNC) infiltration. Briefly, liver tissue was embedded in Tissue Tek OCT compound (Miles Inc., Elkhart, Ind., USA), snap frozen in liquid nitrogen, and stored at −70° C. Cryostat sections (5 μm) were fixed in acetone, and then endogenous peroxidase activity was inhibited with 0.3% H2O2 in PBS. Normal heat-inactivated donkey serum (10%) was used for blocking. Appropriate primary mouse Ab against rat T cells (R73) and monocytes/macrophages (ED1) (Harlan Bioproducts for Science, Indianapolis, Ind., USA) were added at optimal dilutions. Bound primary Ab was detected using biotinylated donkey anti-mouse IgG and streptavidin peroxidase-conjugated complexes (DAKO Corp., Carpinteria, Calif., USA). The control sections were performed by replacing the primary Ab with either dilution buffer or normal mouse serum. The peroxidase reaction was developed with 3,3-diaminobenzidine tetrahydrochloride (Sigma Chemical Co., St. Louis, Mo., USA). The sections were evaluated blindly by counting the labeled cells in triplicates in 10 high-power fields.

liver isografts [6] = assay: OLT liver histology, modified Suzuki's criteria; assay type: in vivo, rat; conditions: day 1 after transplant; graded 0 to 4; control 3.33±0.58
Excerpt: Histology and immunohistochemistry: Liver specimens were fixed in a 10% buffered formalin solution and embedded in paraffin. Sections were made at 4 μm and stained with H&E. The previously published Suzuki's criteria (Suzuki et al., Transplantation 55:1265–1272 (1993)), […] were modified to evaluate the histologic severity of I/R injury in the OLT model. In this classification sinusoidal congestion, hepatocyte necrosis, and ballooning degeneration are graded from 0 to 4. No necrosis, congestion or centrilobular ballooning is given a score of 0, whereas severe congestion and ballooning degeneration as well as greater than 60% lobular necrosis is given a value of 4.

HO-1 [7] = assay: Western analysis of HO-1 expression in the OLT model; assay type: in vivo, rat; conditions: day 1, 7, 14 and 100 after transplant; densitometer; untreated 0.09–0.85 AU
Experimental: as §1

[8] = system: fatty liver isografts from obese Zucker donors in lean Zucker recipients; assay: Syngeneic orthotopic liver transplant (OLT) model, survival and sGOT; assay type: in vivo, rat
Experimental: Syngeneic Orthotopic Liver Transplant (OLT) model: Syngeneic liver transplants were performed using fatty livers that were harvested from obese Zucker rats and stored for 4 hours at 4° C. in University of Wisconsin (UW) solution before being transplanted into lean Zucker recipients. OLTs were performed with revascularization without hepatic artery reconstruction. There were 2 treatment groups. In the first group, obese Zucker rats (n=10) received CoPP (5 mg/kg intraperitoneally) 24 hours before the procurement. Group 2 donors (n=11) were treated with Ad-HO-1 (2.4×10^9 pfu intravenously) 24 hours before harvest. OLT recipients were followed for survival and serum glutamic-oxaloacetic trans-aminase (sGOT) levels. Separate groups of rats (n=2/group) were sacrificed at 1, 7, 14, and 100 days after OLT, and liver samples were collected for H&E/immunohistology staining and Western blot analysis.

HO-1 [9] = assay: Rat sandwich ELISA of HO-1 protein in liver; assay type: in vivo; conditions: 5 mg/kg intraperitoneally
Experimental: To test that stress-induced upregulation of HO-1 reduces I/R insult in steatotic rat livers, we have chosen 2 distinct HO-1-inducing approaches. First, donor rats were pretreated with CoPP (5 mg/kg intraperitoneally), a regimen that increases HO-1 protein levels in rat livers by 250% in a rat sandwich ELISA. Second, because infusion of CoPP in high doses may modulate other heme enzymes such as nitric oxide synthase (NOS) and guanylate cyclase, we have also used Ad-based gene delivery to provide “proof of principle” and to selectively upregulate HO-1 expression in prospective liver donors. Western blot analysis confirmed increased HO-1 protein expression in the ex vivo I/R model using Ad-HO-1-transduced rat steatotic livers.

[10] = recipients treated i.p., Zn 10 mg/kg/day day -1 and days 1-9, Co 20 mg/kg/day days 0-5

Structure (SMILES) | HO-1 expression (HO-1 [1]) [AU] | Banff's score [2] | bile production [3] | portal blood flow [3] | I/R-induced hepatocyte injury measured by sGOT release [3] | heart allograft survival (mean survival time) ([4]; heart donors pre-treated one day before transplantation (50 mg/kg)) [days] | heart allograft survival (mean survival time) [4, 10] [days] | target cell lysis (EL4 cells) [%] | chromium release from target cells (EL4 cells) | intragraft T cells (liver isografts [5]; day 1, labeled cells counted in 10 high-power fields, control 9±3) | intragraft monocytes/macrophages (liver isografts [5]; day 1, labeled cells counted in 10 high-power fields, control 136±31) | hepatocyte architecture and MNC infiltrate of long-term liver grafts (liver isografts [5]; grafts harvested at day 100) | sGOT concentrations ([3]; at 60 minutes of reperfusion, untreated controls 102±8.23) [IU/L] | Suzuki score (liver isografts [6]) | HO-1 expression (HO-1 [7]) | sGOT levels ([8]; day 1 post transplant, control 2695) [IU/L] | sGOT levels ([8]; day 7 post transplant, control 1570) [IU/L] | sGOT levels ([8]; day 14 post transplant, control 460) [IU/L] | recipients still alive at well over 100 days after transplant ([8]; lean Zucker rats engrafted with livers from treated obese Zucker donors) | increase of HO-1 protein levels in rat livers (HO-1 [9]) [%]
C=CC1=C(C)c2cc3[n-]c(cc4nc(cc5[n-]c(cc1n2)c(C)c5C=C)C(C)=C4CCC(=O)O)c(CCC(=O)O)c3C.[Zn+2] [ZnPP, Zinc-protoporphyrin] | 0.12 | 2.86±0.12 | diminished | diminished | augmented hepatocyte injury comparable with otherwise untreated fatty controls | 10.3±1.5 | 12.0±2.4 | 0 | lower than the spontaneous release | – | – | – | – | – | – | – | – | – | – | –
C=CC1=C(C)c2cc3[n-]c(cc4nc(cc5[n-]c(cc1n2)c(C)c5CCC(=O)[O-])C(CCC(=O)[O-])=C4C)c(C)c3C=C.[Co+2].[H+].[H+] [CoPP, cobalt-protoporphyrin] | 2.46 | 1.21±0.39 | significantly increased; also recorded: significantly higher | significantly improved | markedly reduced | – | 10.5±0.6 | 0 | lower than the spontaneous release | 2±1 | 71±12 | good preservation of hepatocyte architecture and only mild MNC infiltrate | 53.3±8.23 | 1.33±0.70 | 1.21–2.14 AU | 1838 | 477 | 198 | 8 out of 10 | 250
